{"source": "paper PMC12281424", "about": "“A Rac-specific competitive inhibitor of guanine nucleotide binding reduces metastasis in triple-negative breast cancer” (Cell Reports Medicine, 2025)", "key": {"[1]": {"biological_target": "Peptidase, CTSG (Cathepsin G) (Homo sapiens, UniProt P08311)", "sequence (P08311 21-255)": "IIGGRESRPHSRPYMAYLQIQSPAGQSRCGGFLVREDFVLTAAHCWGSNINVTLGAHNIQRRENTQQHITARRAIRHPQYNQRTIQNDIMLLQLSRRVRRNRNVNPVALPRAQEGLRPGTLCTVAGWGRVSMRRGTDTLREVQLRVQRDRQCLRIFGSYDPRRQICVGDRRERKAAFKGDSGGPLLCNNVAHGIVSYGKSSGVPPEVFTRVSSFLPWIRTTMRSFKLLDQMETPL", "test": "Safety screen", "type": "biochemical", "method": "(§1) Blood cell counts, kinase profiler, safety screen, bacterial cytotoxicity, Ames, micronucleus assays were performed by the company Eurofins (France)."}, "[2]": {"test_system": "CHO", "test": "Micronucleus assay (HCA)", "type": "cell-based", "source_text": "Data S4. Micronucleus assay-A41.\nTest Scored % Cytotox % Cytotox % Micronucleated t-Test Test\nConcentr. Cells Index CBPI NumbersCell Cells p-value Result […]\nMicronucleus (CHO - S9, HCA)"}, "[3]": {"biological_target": "Histamine H1 (Homo sapiens, UniProt P35367)", "sequence (P35367 whole entry)": "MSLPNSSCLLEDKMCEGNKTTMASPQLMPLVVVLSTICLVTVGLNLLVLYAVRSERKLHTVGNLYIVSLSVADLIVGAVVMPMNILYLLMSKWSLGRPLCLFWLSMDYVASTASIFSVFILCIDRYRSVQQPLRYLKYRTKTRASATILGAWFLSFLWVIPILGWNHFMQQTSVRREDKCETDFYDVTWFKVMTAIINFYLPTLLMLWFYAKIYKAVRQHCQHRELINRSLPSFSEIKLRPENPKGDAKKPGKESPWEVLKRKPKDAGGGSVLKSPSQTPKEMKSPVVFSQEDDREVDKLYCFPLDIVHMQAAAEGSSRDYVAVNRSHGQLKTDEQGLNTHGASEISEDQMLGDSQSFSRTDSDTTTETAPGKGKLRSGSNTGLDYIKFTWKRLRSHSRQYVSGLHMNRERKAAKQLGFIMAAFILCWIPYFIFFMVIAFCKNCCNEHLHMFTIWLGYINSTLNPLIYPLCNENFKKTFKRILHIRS", "test": "Safety screen", "type": "binding", "method": "(§2) Blood cell counts, kinase profiler, safety screen, bacterial cytotoxicity, Ames, micronucleus assays were performed by the company Eurofins (France). The kinase profiler was performed by the company Eurofins (Discovery, Panlab and Cerep)."}, "[4]": {"biological_target": "ALK6(h) (Homo sapiens, UniProt O00238)", "sequence (O00238 14-502)": "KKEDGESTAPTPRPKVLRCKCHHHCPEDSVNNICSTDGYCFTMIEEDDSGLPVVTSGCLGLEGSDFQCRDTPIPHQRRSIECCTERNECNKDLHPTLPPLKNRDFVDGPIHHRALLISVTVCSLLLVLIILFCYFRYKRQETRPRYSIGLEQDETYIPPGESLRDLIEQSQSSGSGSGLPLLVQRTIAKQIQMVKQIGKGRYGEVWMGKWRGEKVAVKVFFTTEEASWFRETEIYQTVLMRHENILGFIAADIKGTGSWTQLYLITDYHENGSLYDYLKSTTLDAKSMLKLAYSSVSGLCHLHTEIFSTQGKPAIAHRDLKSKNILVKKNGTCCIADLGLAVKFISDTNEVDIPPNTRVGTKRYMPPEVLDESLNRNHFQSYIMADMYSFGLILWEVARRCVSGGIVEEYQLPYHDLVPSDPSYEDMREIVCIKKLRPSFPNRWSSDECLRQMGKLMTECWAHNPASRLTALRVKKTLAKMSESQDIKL", "test": "Kinase Profiler", "type": "biochemical", "method": "(§3) The kinase profiler was performed by the company Eurofins (Discovery, Panlab and Cerep)."}, "[5]": {"biological_target": "Rsk4(h) (Homo sapiens, UniProt Q9UK32)", "test": "Kinase Profiler", "type": "biochemical", "method": "as §3"}, "[6]": {"biological_target": "JAK3(h) (Homo sapiens, UniProt P52333)", "test": "Kinase Profiler", "type": "biochemical", "method": "as §3"}, "[7]": {"biological_target": "PKBγ(h) (Homo sapiens, UniProt Q9Y243)", "sequence (Q9Y243 whole entry)": "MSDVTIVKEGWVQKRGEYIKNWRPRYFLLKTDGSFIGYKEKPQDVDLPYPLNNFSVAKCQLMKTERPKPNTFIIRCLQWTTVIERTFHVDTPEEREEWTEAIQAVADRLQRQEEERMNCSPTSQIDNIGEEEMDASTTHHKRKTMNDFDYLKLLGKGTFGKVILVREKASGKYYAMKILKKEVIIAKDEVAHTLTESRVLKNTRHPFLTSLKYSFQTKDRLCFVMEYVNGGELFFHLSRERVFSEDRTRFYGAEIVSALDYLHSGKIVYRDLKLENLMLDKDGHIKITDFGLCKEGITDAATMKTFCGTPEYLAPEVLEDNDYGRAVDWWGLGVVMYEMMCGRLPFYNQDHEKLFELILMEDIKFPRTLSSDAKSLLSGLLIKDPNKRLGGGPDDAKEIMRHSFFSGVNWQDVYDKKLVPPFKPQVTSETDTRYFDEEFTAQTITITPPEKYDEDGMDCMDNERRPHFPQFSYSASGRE", "test": "Kinase Profiler", "type": "biochemical", "method": "as §3"}, "[8]": {"biological_target": "CaMKIδ(h) (Homo sapiens, UniProt Q8IU85)", "sequence (Q8IU85 whole entry)": "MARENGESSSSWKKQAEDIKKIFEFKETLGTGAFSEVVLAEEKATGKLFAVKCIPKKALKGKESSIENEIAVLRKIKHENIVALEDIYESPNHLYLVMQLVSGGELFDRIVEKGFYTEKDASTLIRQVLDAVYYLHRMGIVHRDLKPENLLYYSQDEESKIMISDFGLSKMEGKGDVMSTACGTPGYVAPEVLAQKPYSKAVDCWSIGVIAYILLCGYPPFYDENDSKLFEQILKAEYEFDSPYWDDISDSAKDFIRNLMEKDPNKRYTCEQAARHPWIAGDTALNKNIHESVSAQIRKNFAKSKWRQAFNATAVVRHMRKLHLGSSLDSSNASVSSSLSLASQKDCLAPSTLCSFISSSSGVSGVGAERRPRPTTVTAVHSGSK", "test": "Kinase Profiler", "type": "biochemical", "method": "as §3"}, "[9]": {"biological_target": "Mer(h) (Homo sapiens, UniProt Q12866)", "sequence (Q12866 21-999)": "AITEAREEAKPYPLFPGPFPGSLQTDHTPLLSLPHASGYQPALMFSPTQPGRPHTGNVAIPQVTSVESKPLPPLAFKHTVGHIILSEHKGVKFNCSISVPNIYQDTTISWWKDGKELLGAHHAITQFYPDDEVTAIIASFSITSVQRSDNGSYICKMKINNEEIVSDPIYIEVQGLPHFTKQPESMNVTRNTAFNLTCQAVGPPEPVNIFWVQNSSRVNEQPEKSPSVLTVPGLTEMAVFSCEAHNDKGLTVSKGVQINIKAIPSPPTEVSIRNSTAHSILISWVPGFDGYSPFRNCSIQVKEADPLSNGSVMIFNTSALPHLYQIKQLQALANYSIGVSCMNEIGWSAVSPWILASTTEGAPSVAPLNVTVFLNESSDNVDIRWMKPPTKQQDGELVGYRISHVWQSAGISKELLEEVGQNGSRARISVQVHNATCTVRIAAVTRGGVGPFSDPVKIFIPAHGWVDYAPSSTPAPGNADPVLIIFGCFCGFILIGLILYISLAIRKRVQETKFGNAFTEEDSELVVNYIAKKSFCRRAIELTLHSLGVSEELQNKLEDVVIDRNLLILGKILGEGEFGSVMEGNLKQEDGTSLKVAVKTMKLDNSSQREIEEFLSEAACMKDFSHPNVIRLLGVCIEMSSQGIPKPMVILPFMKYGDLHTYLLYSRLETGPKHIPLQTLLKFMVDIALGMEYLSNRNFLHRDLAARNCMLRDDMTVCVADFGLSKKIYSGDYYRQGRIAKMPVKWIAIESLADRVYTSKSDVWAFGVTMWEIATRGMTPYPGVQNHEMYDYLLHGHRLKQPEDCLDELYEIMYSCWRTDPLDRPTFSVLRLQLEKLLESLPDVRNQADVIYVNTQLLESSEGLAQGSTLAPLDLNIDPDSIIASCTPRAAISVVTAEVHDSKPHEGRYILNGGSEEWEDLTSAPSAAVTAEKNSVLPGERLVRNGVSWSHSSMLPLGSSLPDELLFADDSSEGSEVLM", "test": "Kinase Profiler", "type": "biochemical", "method": "as §3"}, "[10]": {"biological_target": "EphA8(h) (Homo sapiens, UniProt P29322)", "test": "Kinase Profiler", "type": "biochemical", "method": "as §2"}, "[11]": {"biological_target": "T1, RAC1 (Mus musculus, UniProt P63001)", "T1 construct": "endogenous in cells; host or cells: NIH/3T3 fibroblasts (ATCC CRL-1658), EGF-stimulated", "test": "RAC-GTP pull-down assay, EGF-stimulated NIH/3T3 fibroblasts", "type": "cell-based", "settings": "10^-5 M, 1 h, EGF 10 ng/mL 5 min", "procedure": "Figure 2 Identification of a new RAC1 inhibitor (A) Effect of A41 and NSC23766 on ruffle formation (white arrows) induced by EGF (10 ng/mL) in NIH 3T3 cells in serum-free culture medium (CTL). Inhibitors were added at indicated concentration 1 h prior to EGF stimulation. To assess cytoskeleton organization, cells were incubated with Alexa Fluor 488 phalloidin to visualize F-actin. Results shown are representative of 3 independent experiments. Corresponding concentration-response curves have been established by counting the percentages of cells with ruffles (scale bars: 10 μm). (B) Immunoblot analysis and associated quantification of RAC-GTP level and total RAC expression in NIH 3T3 cells stimulated by EGF (10 ng/mL, 5 min) and pre-incubated or not (−) with NSC23766, A41, or A415 at 10^−5 M for 1 h (∗∗∗p < 0.001 vs. controls without EGF stimulation, ^###p < 0.001 vs. controls with EGF stimulation) (N > 3). (C) Representative surface plasmon resonance (SPR) sensograms of binding of immobilized RAC1 with increasing concentrations of A41 with or without EDTA (20 mM) (N > 3). (D) Representative in vitro nucleotide exchange catalyzed by the DH-PH of TIAM (10 nM) measured by the binding of fluorescent mant-GTP (1 μM) to RAC1 (0.5 μM, preloaded with GDP) in the presence of indicated concentrations of A41 (out of N = 6). Dotted lines correspond to the experimental curves, and continuous lines represent the fit of experimental points. (E) Kobs and Kmax were determined in each condition (N = 6). (F) Predicted binding modes of A4 to the NSC23766-binding site (left) or the GDP-binding pocket of RAC1 (right). In the NSC23766-binding site of RAC1, the compound A4 (carbon atoms in blue) makes 2 hydrogen bonds (green dotted line) with Ser71 (S71) and 10 hydrophobic interactions (pink dotted line) with Ala3 (A3), Lys5 (K5), Val36 (V36), Trp56 (W56), Tyr64 (Y64), and Leu67 (L67) leading to a docking score of −6.03 kcal/mol. The GDP molecule is shown with fine line. The P loop is shown in yellow, the switch 1 in orange, and the switch 2 in green. […]\nPull-down assay using GST-PBD fusion proteins were performed on NIH-3T3 lysates to assess RAC1 activity as previously described.[63] The precipitated active RAC was subjected to SDS-PAGE and detected by immunoblot with anti-RAC1 antibody (BD biosciences) (dilution 1/1000). […]\nscreening molecules (10^-5 M) on NIH/3T3 cell adhesion (xCELLingence Real-time cellanalysis, Agilent), migration (CYTOO Mobility plates) and proliferation (xCELLingence Real-time cell analysis, Agilent) .The level of RAC activation is determinedby the detection of RAC-GTP (pull-down assay) in NIH/3T3 cell treated with EGF (10 ng/mL) and the differentmolecules and normalize to the level of RAC activity measuredin the presenceof the reference RAC inhibitor EHT1864."}, "[12]": {"biological_target": "IRR(h) (Homo sapiens, UniProt P14616)", "test": "Kinase Profiler", "type": "biochemical", "method": "as §2"}, "[13]": {"biological_target": "Dopamine D2S (Homo sapiens, UniProt P14416)", "sequence (P14416 1-414 isoform P14416-2)": "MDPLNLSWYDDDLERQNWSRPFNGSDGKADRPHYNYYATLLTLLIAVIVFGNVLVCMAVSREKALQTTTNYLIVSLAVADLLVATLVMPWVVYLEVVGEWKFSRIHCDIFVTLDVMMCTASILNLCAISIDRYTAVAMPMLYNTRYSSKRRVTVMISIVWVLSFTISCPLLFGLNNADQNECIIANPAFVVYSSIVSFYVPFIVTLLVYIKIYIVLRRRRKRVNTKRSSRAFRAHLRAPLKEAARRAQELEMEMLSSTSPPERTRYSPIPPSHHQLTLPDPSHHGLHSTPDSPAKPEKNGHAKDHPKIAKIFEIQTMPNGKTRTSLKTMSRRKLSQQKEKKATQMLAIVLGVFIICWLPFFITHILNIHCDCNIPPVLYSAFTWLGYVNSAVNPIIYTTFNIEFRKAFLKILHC", "test": "Safety screen", "type": "binding", "method": "as §1"}, "[14]": {"test_system": "Transporter, GABA", "test": "Safety screen", "type": "binding, rat", "method": "as §1"}, "[15]": {"biological_target": "IRE1(h) (Homo sapiens, UniProt O75460)", "test": "Kinase Profiler", "type": "biochemical", "method": "as §2"}, "[16]": {"biological_target": "CDK4/cyclinD3(h) (Homo sapiens, UniProt P11802)", "sequence (P11802 whole entry)": "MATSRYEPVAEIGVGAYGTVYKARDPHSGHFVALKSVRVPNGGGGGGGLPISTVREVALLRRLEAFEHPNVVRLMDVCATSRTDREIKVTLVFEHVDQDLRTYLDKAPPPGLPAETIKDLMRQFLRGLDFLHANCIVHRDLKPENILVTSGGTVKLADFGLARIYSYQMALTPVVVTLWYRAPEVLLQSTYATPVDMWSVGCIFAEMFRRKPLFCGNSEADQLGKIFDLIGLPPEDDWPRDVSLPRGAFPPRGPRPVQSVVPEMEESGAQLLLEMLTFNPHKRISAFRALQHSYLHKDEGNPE", "sequence (P30281 whole entry partner)": "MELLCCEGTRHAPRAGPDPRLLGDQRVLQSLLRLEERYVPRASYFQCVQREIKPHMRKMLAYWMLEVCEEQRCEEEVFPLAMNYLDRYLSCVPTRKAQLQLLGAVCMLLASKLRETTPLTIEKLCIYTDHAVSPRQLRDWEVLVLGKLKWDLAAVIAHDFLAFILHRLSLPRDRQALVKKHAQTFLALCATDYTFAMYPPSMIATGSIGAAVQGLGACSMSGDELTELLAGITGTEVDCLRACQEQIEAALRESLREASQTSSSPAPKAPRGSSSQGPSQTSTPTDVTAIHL", "test": "Kinase Profiler", "type": "biochemical", "method": "as §2"}, "[17]": {"biological_target": "NEK4(h) (Homo sapiens, UniProt P51957)", "sequence (P51957 whole entry)": "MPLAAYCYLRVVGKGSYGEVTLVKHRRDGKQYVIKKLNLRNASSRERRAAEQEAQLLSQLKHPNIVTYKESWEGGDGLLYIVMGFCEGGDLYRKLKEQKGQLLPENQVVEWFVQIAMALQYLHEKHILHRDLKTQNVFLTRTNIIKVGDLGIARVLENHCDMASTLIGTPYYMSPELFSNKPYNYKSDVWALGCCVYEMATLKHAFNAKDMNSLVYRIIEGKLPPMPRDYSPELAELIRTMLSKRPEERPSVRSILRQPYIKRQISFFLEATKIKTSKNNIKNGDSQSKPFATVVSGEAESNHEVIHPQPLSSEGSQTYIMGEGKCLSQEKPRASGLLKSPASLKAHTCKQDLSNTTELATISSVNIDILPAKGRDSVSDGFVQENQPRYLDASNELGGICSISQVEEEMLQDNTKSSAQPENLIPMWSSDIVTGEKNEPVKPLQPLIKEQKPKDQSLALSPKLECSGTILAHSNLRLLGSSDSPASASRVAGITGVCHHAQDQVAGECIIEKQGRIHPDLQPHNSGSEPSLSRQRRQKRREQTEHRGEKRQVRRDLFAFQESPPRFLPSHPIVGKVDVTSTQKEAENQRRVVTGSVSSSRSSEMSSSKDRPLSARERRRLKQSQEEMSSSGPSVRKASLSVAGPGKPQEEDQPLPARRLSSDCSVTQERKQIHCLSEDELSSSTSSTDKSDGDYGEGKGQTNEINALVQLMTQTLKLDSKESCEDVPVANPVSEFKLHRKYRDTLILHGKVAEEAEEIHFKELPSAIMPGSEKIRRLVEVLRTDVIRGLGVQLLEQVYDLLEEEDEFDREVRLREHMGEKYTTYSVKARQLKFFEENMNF", "test": "Kinase Profiler", "type": "biochemical", "method": "as §3"}}}
{"smiles": "COc1ccc(OC)c(NS(=O)(=O)c2ccc(NC(=O)CCSc3ccc(C)cc3)cc2)c1", "note": "[Compound A41]", "values": [{"measurement": "% inh.", "setting": "[1]", "result": -2, "unit": "%"}, {"measurement": "% Cytotox Cell Numbers", "setting": "[2]; - S9, 1.3E-04 M", "result": 64.6, "unit": "%"}, {"measurement": "% Cytotox Index CBPI", "setting": "[2]; - S9, 1.3E-04 M", "result": 72.8, "unit": "%"}, {"measurement": "% Micronucleated Cells", "setting": "[2]; - S9, 1.3E-04 M", "result": 13.39, "unit": "%"}, {"measurement": "% Cytotox Cell Numbers", "setting": "[2]; - S9, 1.6E-05 M", "result": 26.4, "unit": "%"}, {"measurement": "% Cytotox Index CBPI", "setting": "[2]; - S9, 1.6E-05 M", "result": -23.9, "unit": "%"}, {"measurement": "% Micronucleated Cells", "setting": "[2]; - S9, 1.6E-05 M", "result": 2.04, "unit": "%"}, {"measurement": "% Cytotox Cell Numbers", "setting": "[2]; - S9, 2.5E-04 M", "result": 73.6, "unit": "%"}, {"measurement": "% Cytotox Index CBPI", "setting": "[2]; - S9, 2.5E-04 M", "result": 73.8, "unit": "%"}, {"measurement": "% Micronucleated Cells", "setting": "[2]; - S9, 2.5E-04 M", "result": 14.40, "unit": "%"}, {"measurement": "% Cytotox Cell Numbers", "setting": "[2]; - S9, 3.1E-05 M", "result": 42.0, "unit": "%"}, {"measurement": "% Cytotox Index CBPI", "setting": "[2]; - S9, 3.1E-05 M", "result": 8.1, "unit": "%"}, {"measurement": "% Micronucleated Cells", "setting": "[2]; - S9, 3.1E-05 M", "result": 3.12, "unit": "%"}, {"measurement": "% Cytotox Cell Numbers", "setting": "[2]; - S9, 6.3E-05 M", "result": 52.5, "unit": "%"}, {"measurement": "% Cytotox Index CBPI", "setting": "[2]; - S9, 6.3E-05 M", "result": 65.8, "unit": "%"}, {"measurement": "% Micronucleated Cells", "setting": "[2]; - S9, 6.3E-05 M", "result": 6.96, "unit": "%"}, {"measurement": "% Cytotox Cell Numbers", "setting": "[2]; - S9, 7.8E-06 M", "result": 14.3, "unit": "%"}, {"measurement": "% Cytotox Index CBPI", "setting": "[2]; - S9, 7.8E-06 M", "result": -21.4, "unit": "%"}, {"measurement": "% Micronucleated Cells", "setting": "[2]; - S9, 7.8E-06 M", "result": 1.13, "unit": "%"}, {"measurement": "% inh.", "setting": "[3]", "result": 41, "unit": "%"}, {"measurement": "Activity(%)", "setting": "[4]", "result": 104, "unit": "%"}, {"measurement": "Activity(%)", "setting": "[5]", "result": 128, "unit": "%"}, {"measurement": "Activity(%)", "setting": "[6]", "result": 106, "unit": "%"}, {"measurement": "Activity(%)", "setting": "[7]", "result": 98, "unit": "%"}, {"measurement": "Activity(%)", "setting": "[8]", "result": 94, "unit": "%"}, {"measurement": "Activity(%)", "setting": "[9]", "result": 90, "unit": "%"}, {"measurement": "Activity(%)", "setting": "[10]", "result": 112, "unit": "%"}, {"measurement": "RAC1 activation (active GTP-bound RAC1)", "setting": "[11]", "result": "blocked RAC1 activation"}, {"measurement": "Activity(%)", "setting": "[12]", "result": 118, "unit": "%"}, {"measurement": "% inh.", "setting": "[13]", "result": 35, "unit": "%"}, {"measurement": "% inh.", "setting": "[14]", "result": -4, "unit": "%"}, {"measurement": "Activity(%)", "setting": "[15]", "result": 101, "unit": "%"}, {"measurement": "Activity(%)", "setting": "[16]", "result": 96, "unit": "%"}, {"measurement": "Activity(%)", "setting": "[17]", "result": 108, "unit": "%"}]}
